From US8822520B2, “Substituted bicyclic HCV inhibitors” (Presidio Pharmaceuticals, Inc., priority 2010, dated 2014)

Test system: HCV genotype 1b replicon in Huh 7 cells (HCV 1b_Huh-Luc/Neo-ET cell line)
Assay: HCV replicon assay (luciferase readout)
Type: cell-based
Conditions: Hepatitis C virus, Huh-7; Table 1; EC50 range class; replicon luciferase, 72 h incubation, average EC50; read-out: Inhibition of HCV genotype 1b
Experimental: Biological activity of the compounds of the invention was determined using an HCV replicon assay. The HCV 1b_Huh-Luc/Neo-ET cell line persistently expressing a bicistronic genotype 1b replicon in Huh 7 cells was obtained from ReBLikon GMBH. This cell line was used to test compound inhibition using luciferase enzyme activity readout as a measurement of compound inhibition of replicon levels.
On Day 1 (the day after plating cells), each compound is added in triplicate to the cells. Plates are incubated for 72 h prior to determining luciferase levels. Enzyme activity was measured using a Bright-Glo Kit (cat. number E2620) manufactured by Promega Corporation. The following equation was used to generate a percent control value for each compound. % Control=(Compound Luciferase Level/Control Luciferase Level)*100
The EC50 value was determined using GraphPad Prism and the following equation: Y=Bottom asymptote+(Top asymptote−Bottom asymptote)/(1+10^((Log EC50−X)*HillSlope))
EC50 values of compounds are determined several times in the replicon assay to generate average EC50 values.

COCCOc1cc(-c2cnc([C@@H]3CCCN3C(=O)[C@@H](NC(=O)OC)C(C)C)[nH]2)ccc1-c1ccc(-c2cnc([C@@H]3CCCN3C(=O)[C@@H](NC(=O)OC)C(C)C)[nH]2)cc1OCCOC [Compound 1]
EC50: < 1 nM

COCCOc1c(-c2ccc(-c3cnc([C@@H]4CCCN4C(=O)[C@@H](NC(=O)OC)C(C)C)[nH]3)cc2)ccc(-c2cnc([C@@H]3CCCN3C(=O)[C@@H](NC(=O)OC)C(C)C)[nH]2)c1OCCOC [Compound 2]
EC50: < 1 nM

CC[C@H](C)C(NC(=O)OC)C(=O)N1CCC[C@H]1c1ncc(-c2ccc(-c3ccc(-c4cnc([C@@H]5CCCN5C(=O)[C@@H](NC(=O)OC)[C@@H](C)CC)[nH]4)c(OCCOC)c3OCCOC)cc2)[nH]1 (stereo partly shown) [Compound 3]
EC50: < 1 nM

COCCOc1c(-c2ccc(-c3cnc([C@@H]4CCCN4C(=O)[C@@H](NC(=O)OC)C4CCCC4)[nH]3)cc2)ccc(-c2cnc([C@@H]3CCCN3C(=O)[C@@H](NC(=O)OC)C3CCCC3)[nH]2)c1OCCOC [Compound 4]
EC50: < 1 nM

COCCOc1cc(-c2cnc([C@@H]3CCCN3C(=O)[C@H](C)NC(=O)OC)[nH]2)ccc1-c1ccc(-c2cnc([C@@H]3CCCN3C(=O)[C@H](C)NC(=O)OC)[nH]2)cc1OCCOC [Compound 6]
EC50: 10 to 999 nM

CC[C@H](C)C(NC(=O)OC)C(=O)N1CCC[C@H]1c1ncc(-c2ccc(-c3ccc(-c4cnc([C@@H]5CCCN5C(=O)C(NC(=O)OC)[C@@H](C)CC)[nH]4)cc3OCCOC)c(OCCOC)c2)[nH]1 (stereo partly shown) [Compound 7]
EC50: < 1 nM

COCCOc1cc(-c2cnc([C@@H]3CCCN3C(=O)[C@@H](NC(=O)OC)C3CCCC3)[nH]2)ccc1-c1ccc(-c2cnc([C@@H]3CCCN3C(=O)[C@@H](NC(=O)OC)C3CCCC3)[nH]2)cc1OCCOC [Compound 8]
EC50: < 1 nM

COCCOc1cc(-c2cnc([C@@H]3CCCN3C(=O)[C@@H](NC(=O)OC)C3CCCCC3)[nH]2)ccc1-c1ccc(-c2cnc([C@@H]3CCCN3C(=O)[C@@H](NC(=O)OC)C3CCCCC3)[nH]2)cc1OCCOC [Compound 9]
EC50: < 1 nM

COCCOc1c(-c2ccc(-c3cnc([C@@H]4CCCN4C(=O)[C@H](C)NC(=O)OC)[nH]3)cc2)ccc(-c2cnc([C@@H]3CCCN3C(=O)[C@H](C)NC(=O)OC)[nH]2)c1OCCOC [Compound 10]
EC50: < 1 nM

COCCOc1c(-c2ccc(-c3cnc([C@@H]4CCCN4C(=O)C(NC(=O)OC)[C@@H](C)OC)[nH]3)cc2)ccc(-c2cnc([C@@H]3CCCN3C(=O)C(NC(=O)OC)[C@@H](C)OC)[nH]2)c1OCCOC (stereo partly shown) [Compound 12]
EC50: 1 to 9.9 nM

COCCOc1c(-c2ccc(-c3cnc([C@@H]4CCCN4C(=O)[C@@H](NC(=O)OC)C(C)(C)C)[nH]3)cc2)ccc(-c2cnc([C@@H]3CCCN3C(=O)[C@@H](NC(=O)OC)C(C)(C)C)[nH]2)c1OCCOC [Compound 13]
EC50: 1 to 9.9 nM

COCCOc1c(-c2ccc(-c3cnc([C@@H]4CCCN4C(=O)[C@@H](NC(=O)OC)C4CCOCC4)[nH]3)cc2)ccc(-c2cnc([C@@H]3CCCN3C(=O)[C@@H](NC(=O)OC)C3CCOCC3)[nH]2)c1OCCOC [Compound 14]
EC50: 1 to 9.9 nM

COCCOc1c(-c2ccc(-c3cnc([C@@H]4CCCN4C(=O)[C@@H](c4ccccc4)N(C)C)[nH]3)cc2)ccc(-c2cnc([C@@H]3CCCN3C(=O)[C@@H](c3ccccc3)N(C)C)[nH]2)c1OCCOC [Compound 15]
EC50: < 1 nM

COCCOc1c(-c2ccc(-c3cnc([C@@H]4CCCN4C(=O)[C@@H](c4ccccc4)N4CCCC4)[nH]3)cc2)ccc(-c2cnc([C@@H]3CCCN3C(=O)[C@@H](c3ccccc3)N3CCCC3)[nH]2)c1OCCOC [Compound 16]
EC50: 1 to 9.9 nM

COCCOc1c(-c2ccc(-c3cnc([C@@H]4CCCN4C(=O)[C@H](NS(C)(=O)=O)c4ccccc4)[nH]3)cc2)ccc(-c2cnc([C@@H]3CCCN3C(=O)[C@H](NS(C)(=O)=O)c3ccccc3)[nH]2)c1OCCOC [Compound 17]
EC50: < 1 nM

COCCOc1c(-c2ccc(-c3cnc([C@@H]4CCCN4C(=O)[C@H](NC(=O)OC)C(C)C)[nH]3)cc2)ccc(-c2cnc([C@@H]3CCCN3C(=O)[C@H](C)NC(=O)OC)[nH]2)c1OCCOC [Compound 18]
EC50: 1 to 9.9 nM

CC[C@H](C)[C@H](NC(=O)OC)C(=O)N1CCC[C@H]1c1ncc(-c2ccc(-c3ccc(-c4cnc([C@@H]5CCCN5C(=O)[C@@H](NC(=O)OC)C(C)C)[nH]4)cc3)c(OCCOC)c2OCCOC)[nH]1 [Compound 19]
EC50: < 1 nM

COCCOc1c(-c2ccc(-c3cnc([C@@H]4CCCN4C(=O)[C@H](NC(=O)OC)c4ccccc4)[nH]3)cc2)ccc(-c2cnc([C@@H]3CCCN3C(=O)[C@H](NC(=O)OC)c3ccccc3)[nH]2)c1OCCOC [Compound 20]
EC50: < 1 nM

COCCOc1c(-c2ccc(-c3cnc([C@@H]4CCCN4C(=O)[C@H](NC(=O)OC)c4ccsc4)[nH]3)cc2)ccc(-c2cnc([C@@H]3CCCN3C(=O)[C@H](NC(=O)OC)c3ccsc3)[nH]2)c1OCCOC [Compound 21]
EC50: < 1 nM

COCCOc1c(-c2ccc(-c3cnc([C@@H]4CCCN4C(=O)[C@H](NC(=O)OC)c4cccs4)[nH]3)cc2)ccc(-c2cnc([C@@H]3CCCN3C(=O)[C@H](NC(=O)OC)c3cccs3)[nH]2)c1OCCOC [Compound 22]
EC50: < 1 nM

COCCOc1c(-c2ccc(-c3cnc([C@@H]4CCCN4C(=O)[C@H](NC(C)=O)c4ccccc4)[nH]3)cc2)ccc(-c2cnc([C@@H]3CCCN3C(=O)[C@H](NC(C)=O)c3ccccc3)[nH]2)c1OCCOC [Compound 23]
EC50: < 1 nM

CNC(=O)N[C@@H](C(=O)N1CCC[C@H]1c1ncc(-c2ccc(-c3ccc(-c4cnc([C@@H]5CCCN5C(=O)[C@H](NC(=O)NC)c5ccccc5)[nH]4)c(OCCOC)c3OCCOC)cc2)[nH]1)c1ccccc1 [Compound 24]
EC50: < 1 nM

COCCOc1cc(-c2cnc([C@@H]3CCCN3C(=O)C(NC(=O)OC)[C@@H](C)OC)[nH]2)ccc1-c1ccc(-c2cnc([C@@H]3CCCN3C(=O)C(NC(=O)OC)[C@@H](C)OC)[nH]2)cc1OCCOC (stereo partly shown) [Compound 25]
EC50: 1 to 9.9 nM

COCCOc1cc(-c2cnc([C@@H]3CCCN3C(=O)[C@H](NC(=O)OC)c3ccccc3)[nH]2)ccc1-c1ccc(-c2cnc([C@@H]3CCCN3C(=O)[C@H](NC(=O)OC)c3ccccc3)[nH]2)cc1OCCOC [Compound 26]
EC50: < 1 nM

COCCOc1c(-c2ccc(-c3cnc([C@@H]4CCCN4C(=O)[C@@H](NC(=O)OC)C(C)C)[nH]3)cc2)ccc(-c2cnc([C@@H]3CCCN3C(=O)[C@H](COC)NC(=O)OC)[nH]2)c1OCCOC [Compound 27]
EC50: < 1 nM

COCCOc1c(-c2ccc(-c3cnc([C@@H]4CCCN4C(=O)[C@@H](NC(=O)OC)C(C)C)[nH]3)cc2)ccc(-c2cnc([C@@H]3CCCN3C(=O)[C@@H](NC(=O)OC)[C@@H](C)OC)[nH]2)c1OCCOC [Compound 28]
EC50: < 1 nM

COCCOc1c(-c2ccc(-c3cnc([C@@H]4CCCN4C(=O)[C@@H](NC(=O)OC)C(C)C)[nH]3)cc2)ccc(-c2cnc([C@@H]3CCCN3C(=O)[C@@H](NC(=O)OC)C3CCCC3)[nH]2)c1OCCOC [Compound 29]
EC50: < 1 nM

COCCOc1c(-c2ccc(-c3cnc([C@@H]4CCCN4C(=O)[C@@H](NC(=O)OC)C(C)C)[nH]3)cc2)ccc(-c2cnc([C@@H]3CCCN3C(=O)[C@H](NC(=O)OC)c3ccccc3)[nH]2)c1OCCOC [Compound 30]
EC50: < 1 nM

COCCOc1c(-c2ccc(-c3cnc([C@@H]4CCCN4C(=O)[C@@H](NC(=O)OC)C(C)C)[nH]3)cc2)ccc(-c2cnc([C@@H]3CCCN3C(=O)[C@H](NC(=O)OC)c3ccsc3)[nH]2)c1OCCOC [Compound 31]
EC50: < 1 nM

COCCOc1c(-c2ccc(-c3cnc([C@@H]4CCCN4C(=O)[C@@H](NC(=O)OC)C(C)C)[nH]3)cc2)ccc(-c2cnc([C@@H]3CCCN3C(=O)[C@H](NC(=O)OC)c3cccs3)[nH]2)c1OCCOC [Compound 32]
EC50: < 1 nM

COCCOc1c(-c2ccc(-c3cnc([C@@H]4CCCN4C(=O)[C@@H](NC(=O)OC)C(C)C)[nH]3)cc2)ccc(-c2cnc([C@@H]3CCCN3C(=O)[C@@H](c3ccccc3)N(C)C)[nH]2)c1OCCOC [Compound 33]
EC50: < 1 nM

COCCOc1cc(-c2cnc([C@@H]3CCCN3C(=O)[C@@H](NC(=O)OC)C(C)C)[nH]2)ccc1-c1ccc(-c2cnc([C@@H]3CCCN3C(=O)[C@@H](NC(=O)OC)[C@@H](C)OC)[nH]2)cc1OCCOC [Compound 34]
EC50: 1 to 9.9 nM

CC[C@H](C)[C@H](NC(=O)OC)C(=O)N1CCC[C@H]1c1ncc(-c2ccc(-c3ccc(-c4cnc([C@@H]5CCCN5C(=O)[C@@H](NC(=O)OC)C(C)C)[nH]4)cc3OCCOC)c(OCCOC)c2)[nH]1 [Compound 35]
EC50: < 1 nM

COCCOc1cc(-c2cnc([C@@H]3CCCN3C(=O)[C@@H](NC(=O)OC)C(C)C)[nH]2)ccc1-c1ccc(-c2cnc([C@@H]3CCCN3C(=O)[C@@H](NC(=O)OC)C3CCCC3)[nH]2)cc1OCCOC [Compound 36]
EC50: < 1 nM

COCCOc1cc(-c2cnc([C@@H]3CCCN3C(=O)[C@@H](NC(=O)OC)C(C)C)[nH]2)ccc1-c1ccc(-c2cnc([C@@H]3CCCN3C(=O)[C@H](NC(=O)OC)c3ccccc3)[nH]2)cc1OCCOC [Compound 37]
EC50: < 1 nM

COCCOc1cc(-c2cnc([C@@H]3CCCN3C(=O)[C@@H](NC(=O)OC)C(C)C)[nH]2)ccc1-c1ccc(-c2cnc([C@@H]3CCCN3C(=O)[C@@H](c3ccccc3)N3CCCC3)[nH]2)cc1OCCOC [Compound 38]
EC50: 1 to 9.9 nM

COCCOc1c(-c2ccc(-c3cnc([C@H](C)NC(=O)[C@@H](NC(=O)OC)C(C)C)[nH]3)cc2)ccc(-c2cnc([C@@H]3CCCN3C(=O)[C@@H](NC(=O)OC)C(C)C)[nH]2)c1OCCOC [Compound 39]
EC50: 1 to 9.9 nM
